Source: ChEMBL document CHEMBL1157539, “Thousands of chemical starting points for antimalarial lead identification” (Nature, 2010)

Each compound was assayed on Plasmodium falciparum (assay: GSK_TCMDC: Inhibition of Plasmodium falciparum 3D7 in whole erythrocytes, using parasite LDH activity as an index of growth.). Details: Plasmodium falciparum, 3D7.
Assay type: functional, organism-based
Cc1ncccc1C(=O)Nc1cccc(-c2cccc(-c3nc4cccc(C)c4[nH]3)c2)c1 gave an XC50 of 956 nM.
CN(C)CCOc1ccc(-c2cc(-c3ccc(Cl)c(O)c3)c(-c3ccncc3)o2)cc1 showed an XC50 of 1450 nM.
CNc1ccc(CNCc2cccc(-c3ccc(-c4nc5ccccc5[nH]4)s3)c2)cc1 gave an XC50 of 734 nM.
Compound COc1ccc(O)c(C(=O)c2cc(C#N)c(=O)n(-c3ccc(Oc4ccccc4)cc3)c2)c1 has an XC50 of 737 nM.
Work on O=C(Nc1ccc(SC(F)(F)F)cc1)Nc1ccnc2ccccc12 yielded an XC50 of 746 nM.
Work on Cc1ccccc1CNc1noc(-c2sccc2Br)n1 yielded an XC50 of 380 nM.
C[C@@]12C[C@@H](Nc3nc(NCCc4ccc(O)cc4)nc(N4CCNCC4)n3)C[C@@H](C1)c1cccc(Cl)c1O2 gave an XC50 of 1320 nM.
CCCNCc1ccc(-c2ccc(CN(Cc3cnc(C)cn3)C(=O)CC#N)cc2)nc1 gave an XC50 of 1220 nM.
In the case of CC(C)(C)c1ccc2[nH]c(-c3ccc(C(=O)NCCCc4ccccc4)cc3)nc2c1, the XC50 is reported as 801 nM.
For O=C(O)CCSc1ncnc2[nH]cnc12, the XC50 was 129 nM.
O=C(Nc1ccc(-c2ccc(-c3nc4cc(C(F)(F)F)ccc4[nH]3)s2)cc1)c1c[nH]cn1 was tested, and the XC50 was 670 nM.
Cc1cccc2nc(-c3cccc(-c4cccc(NC(=O)c5cncn5C)c4)c3)[nH]c12 showed an XC50 of 167 nM.
Compound Cc1cc(NCCC(=O)NCCc2ccccc2)nc(NCCc2ccc(F)cc2)n1 has an XC50 of 1080 nM.
CC(=O)N(Cc1ccc(CC(C)NCCc2cccc(Cl)c2)cc1)Cc1ccc(CC(C)NCCc2cccc(Cl)c2)cc1 (stereo not given) was tested, and the XC50 was 783 nM.
For Cc1[nH]c(C)c(-c2ccc(-c3cccc(Cl)c3)nc2)c(=O)c1Cl, the XC50 was 186 nM.
In the case of COc1ccc(NC(=O)/C=C/c2ccccc2Cl)cc1OCCN1CCC(N2CCN(C)CC2)CC1, the XC50 is reported as 487 nM.
Work on Clc1ccccc1C=NN=c1cc[nH]c2ccccc12 yielded an XC50 of 850 nM.
Work on O=C(NCCCCN1CCC(C(c2ccccc2)c2ccccc2)CC1)c1ccc(NC(=O)c2ccc(Cl)cc2)cc1 yielded an XC50 of 769 nM.
COc1cccc(CCNC(C)Cc2ccc(OCCCCOc3ccccc3)cc2)c1 (stereo not given) gave an XC50 of 741 nM.
Compound Cc1[nH]c(C)c(-c2ccc(Br)cc2)c(=O)c1Cl has an XC50 of 844 nM.
With CS(=O)(=O)c1ccc(CCNCc2ccc(-c3cccc(-c4nc5ccccc5[nH]4)c3)cc2)cc1 the XC50 was 194 nM.
In the case of O=C(NCCCCN1CCC(c2ccc3c(c2OCCCO)CCCC3)CC1)c1ccc(-c2ccc(C(F)(F)F)cc2)cc1, the XC50 is reported as 718 nM.
For CC1(C)CC(=O)c2c(O)cc(OCc3ccncc3)cc2O1, the XC50 was 1040 nM.
For COc1ccc2ncc(F)c([C@H](O)CN3CCC(NCc4ccc5c(c4)NC(=O)CS5)CC3)c2c1, the XC50 was 185 nM.
For O=C(NNC(=O)c1ccc(CCN2CCC(c3nc(COCC(F)(F)F)c(-c4ccc(F)cc4)o3)CC2)cc1)Nc1ccc(Oc2ccccc2)cc1, the XC50 was 708 nM.
For CCN(CC)CC(O)c1cc(-c2ccc(OC)cc2)nc2cc(Cl)ccc12 (stereo not given), the XC50 was 67.1 nM.
In the case of CC(C)NCc1cccc(-c2cccc(NC(=O)c3cccc(Cl)c3)c2)c1, the XC50 is reported as 592 nM.
In the case of CCOC(=O)NCC(=O)Nc1cccc(-c2cccc(-c3nc4cccc(C)c4[nH]3)c2)c1, the XC50 is reported as 740 nM.
With Cc1nc2cc(/C=C/C(=O)NC3CCC(CCN4CCc5ccc(C#N)cc5CC4)CC3)ccc2[nH]1 (stereo not given) the XC50 was 1140 nM.
CCN(CC)CCCN(CCCN(CC)CC)c1cc(C)nc(Nc2ccc(Cl)cc2)n1 was tested, and the XC50 was 211 nM.
For COc1ccc(CN2CCC(C(=O)Nc3cccc(-c4cccc(Cl)c4)c3)CC2)cc1O, the XC50 was 975 nM.
For Cc1cc(N[C@@H](Cc2ccccc2)C(=O)NCCOc2ccccc2)nc(NCc2ccccc2C)n1, the XC50 was 711 nM.
OCCN1CCN(C(=S)Nc2ccccc2)CC1 gave an XC50 of 936 nM.
In the case of COc1ccc(CNC2CCN(C)CC2)cc1-c1ccc(S(=O)(=O)NCCc2ccccn2)s1, the XC50 is reported as 624 nM.
Cc1cc(N[C@@H](Cc2ccccc2)C(=O)NC2CCCC2)nc(NCCc2ccc(F)cc2)n1 was tested, and the XC50 was 803 nM.
CS(=O)(=O)Nc1ccc2[nH]cc(C3CC4CCC(C3)N4CC3CCC(NC(=O)/C=C/c4ccc(Cl)c(Cl)c4)CC3)c2c1 (stereo not given) gave an XC50 of 872 nM.
Compound CCOc1ccc2[nH]c(C)cc(=NN=Cc3ccccc3Cl)c2c1 has an XC50 of 191 nM.
In the case of O=C(Cc1ccc(Cl)cc1)Nc1cc(Cl)ccc1Cn1cnc(N2CCNCC2)cc1=O, the XC50 is reported as 998 nM.
For CC(C)Cn1ncc2c3c(N)nc(N)nc3ccc21, the XC50 was 159 nM.
Cc1noc(C)c1-c1ccc2c(Nc3ccc(Cl)cc3)c(C(N)=O)cnc2c1 showed an XC50 of 826 nM.
Work on COc1ccc(S(=O)(=O)N2CCC3(CC2)OCC(=O)NC3c2ccc(Cl)c(Cl)c2)cc1 (stereo not given) yielded an XC50 of 644 nM.
Work on O=C(NC(=O)c1ccccc1O)c1ccccc1O yielded an XC50 of 704 nM.
With CCC(C(=O)Nc1ccccc1)n1nc(-c2ccc(C)c(S(=O)(=O)N3CCCCC3)c2)ccc1=O (stereo not given) the XC50 was 1090 nM.
Work on Clc1ccc(-c2nc(-c3ccncc3)c[nH]2)cc1Cl yielded an XC50 of 1060 nM.
COc1ccc2cc(C(=O)NC3CCC(CCN4CCc5cc(C#N)ccc5C4)CC3)[nH]c2c1 (stereo not given) was tested, and the XC50 was 1010 nM.
CC(C)(C)NS(=O)(=O)c1cc(C(=O)N2CCC(CCN3CCC(O)(c4cccc(C(F)(F)F)c4)CC3)(c3cccc(F)c3)CC2)c(Cl)cc1F showed an XC50 of 858 nM.
In the case of Cc1cccc2nc(-c3cccc(-c4cccc(NC(=O)Cc5ccc[n+]([O-])c5)c4)c3)[nH]c12, the XC50 is reported as 635 nM.
COc1cc2nc(N3CCC(CNC(=O)c4ccc(-c5ccc(C(F)(F)F)cc5)cc4)CC3)nc(N)c2cc1OC was tested, and the XC50 was 127 nM.
CCOc1cc(C)ccc1NC1CCN(CCCCNC(=O)c2ccc(NC(=O)c3ccc(Cl)cc3)cc2)CC1 showed an XC50 of 714 nM.
With NC(=O)c1ccc(C(=O)Nc2cccc(-c3cccc(-c4nc5cc(C(F)(F)F)ccc5[nH]4)c3)c2)cc1 the XC50 was 229 nM.
For CN1CCCN(Cc2ccc(-c3ccc(NC(=O)c4cccc(C#N)c4)cc3)cc2)CC1, the XC50 was 875 nM.
With N=c1c2c(n(Cc3cccc(Cl)c3)c3c1CCC3)CCCC2 the XC50 was 194 nM.
In the case of Oc1ccc(C2CNCCc3c2cc(O)c(OCc2ccccc2)c3Cl)cc1 (stereo not given), the XC50 is reported as 716 nM.
With COc1cccc(Nc2nccc(NCC(O)c3ccc(C(F)(F)F)cc3)n2)c1 (stereo not given) the XC50 was 659 nM.
CC(C)OC(=O)c1ccc(NC(=O)N[C@@H](Cc2ccc(O)cc2)C(=O)NC2CCC(CCN3C4CCC3c3ccccc34)CC2)cc1 (stereo not given in full) gave an XC50 of 829 nM.
Compound O=C(/C=C/c1ccc(Cl)c(Cl)c1)N1CCC(CCN2CCc3[nH]c4ccccc4c3C2)CC1 has an XC50 of 886 nM.
For CC1CCC(C[C@@H](C(=O)N[C@@H](CCC(=O)N2CCCCC2)C(=O)Nc2nccs2)[C@H](C(C)C)N(O)C=O)CC1 (stereo not given in full), the XC50 was 615 nM.
Compound CCOc1ccc(C(=O)Nc2cc(Br)c3c(c2)CNCC3)cc1Cl has an XC50 of 1040 nM.
In the case of CC1(C)N=C(N)N=C(NOCCCCCCONC2=NC(N)=NC(C)(C)N2)N1, the XC50 is reported as 33.3 nM.
Cc1ccc(-c2cc(C(=O)Nc3ccc(S(=O)(=O)N4CCCCC4)cc3)[nH]n2)c(O)c1 showed an XC50 of 1770 nM.
COc1ccc(NC(=O)c2c(NC(=O)c3cccs3)sc3c2CCCC3)cc1 showed an XC50 of 448 nM.
For COc1ccccc1C(=O)Nc1ccc(Nc2nc(C)cc(N3CCOCC3)n2)cc1, the XC50 was 528 nM.
O=C1CC(C(=O)Nc2cccc(-c3cccc(-c4nc5ccccc5[nH]4)c3)c2)c2ccccc2N1 (stereo not given) was tested, and the XC50 was 980 nM.
Compound CCNC(=O)Nc1ccc(-c2ccc(-c3nc4cccc(C)c4[nH]3)s2)cc1 has an XC50 of 1070 nM.
In the case of COC(=O)c1sc2ccccc2c1NC(=O)c1ccc(C)c(C)c1, the XC50 is reported as 1070 nM.
O=C(Nc1ccc(-c2oc(C(=O)NCCc3cccc(Cl)c3)cc2-c2ccncc2)cc1)Nc1cccc(Cl)c1 was tested, and the XC50 was 722 nM.
CCCCN1CCN(Cc2cccc(NC(=O)c3ccc(Cl)c(Cl)c3)c2)CC1 gave an XC50 of 1160 nM.
For COc1cccc(C(=O)N2CCN(Cc3cccc(NC(=O)c4cccs4)c3)CC2)c1, the XC50 was 483 nM.
Work on CC(=O)Nc1cccc(C(=O)Nc2cccc(-c3ccc(-c4nc5cccc(C)c5[nH]4)s3)c2)c1 yielded an XC50 of 767 nM.
With COc1ccc(NC(=O)/C=C/c2ccccc2Cl)cc1OCCN1CCC(N2CCCC2)CC1 the XC50 was 786 nM.
